Measurements: patent publication US20260042764A1, “COMPOSITIONS AND METHODS FOR INHIBITION OF KRAS” (TheRas, Inc., priority 2022, published 2026)

Legend:
GP2d cells (KRAS G12D) = assay: Cell-based pERK HTRF assay in GP2d cell (Biological Example 2); conditions: GP2d (KRAS G12D) cells
Procedure, shortened: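 HTRF read-out of pERK (excitation 320 nm, emission 615 nm) after lysates sat 4–24 h at room temperature with Eu cryptate and d2 antibodies.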

[1] = target: T1, Avi-KRAS G12D (2-169) GTP/RAF1 RBD-3xFLAG (51-131) (Homo sapiens, UniProt P01116, G12D); assay: Raf1-KRAS G12D-GTP disruption HTRF assay (Biological Example 3); format: binding; conditions: KRAS G12D, GTP-loaded
T1 construct: Avi-KRAS G12D (2-169)
Procedure, shortened: (§1)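 Compounds were titrated 10-point, 3-fold from 30 μM against preformed KRAS-GTP:RAF1 RBD (51-131) complexes at 50 nM, using KRAS 2-169 as WT, G12C, G12D or G12V. After 1 h at room temperature in Tris pH 7.5 buffer with MgCl2 and 10% DMSO, time-resolved fluorescence was read. Results are percent activity versus DMSO.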

[2] = target: T2, Avi-KRAS G12C (2-169) GTP/RAF1 RBD-3xFLAG (51-131) (Homo sapiens, UniProt P01116, G12C); assay: Raf1-KRAS G12C-GTP disruption HTRF assay (Biological Example 3); format: binding; conditions: KRAS G12C, GTP-loaded
T2 construct: Avi-KRAS G12C (2-169)
Procedure, shortened: as §1

[3] = target: T3, Avi-KRAS G12V (2-169) GTP/RAF1 RBD-3xFLAG (51-131) (Homo sapiens, UniProt P01116, G12V); assay: Raf1-KRAS G12V-GTP disruption HTRF assay (Biological Example 3); format: binding; conditions: KRAS G12V, GTP-loaded
T3 construct: Avi-KRAS G12V (2-169)
Procedure, shortened: as §1

[4] = target: T4, Avi-KRAS WT (2-169) GTP/RAF1 RBD-3xFLAG (51-131) (Homo sapiens, UniProt P01116); assay: Raf1-KRAS WT-GTP disruption HTRF assay (Biological Example 3); format: binding; conditions: KRAS WT, GTP-loaded
T4 construct: Avi-KRAS WT (2-169)
Procedure, shortened: as §1

SW620 cells (KRAS G12V) = assay: Cell-based pERK HTRF assay in SW620 cell (Biological Example 4)
Procedure, shortened: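 SW620 seeded in RPMI/10% FBS, next day dosed 4 h (top 1 μM, half-log, 9 pts, 0.25% DMSO). Lysed, pERK by d2/Eu cryptate HTRF, 4–24 h RT, 615 nm read.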

[5] = Homo sapiens, SW-620, SW620 (KRAS G12V) cells

T3 sequence (P01116 2-169 isoform P01116-2 G12V): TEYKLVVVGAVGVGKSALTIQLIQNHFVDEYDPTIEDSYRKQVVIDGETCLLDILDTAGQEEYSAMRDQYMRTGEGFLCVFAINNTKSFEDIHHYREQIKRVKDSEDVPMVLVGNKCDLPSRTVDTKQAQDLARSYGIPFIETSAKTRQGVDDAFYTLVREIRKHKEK
T2 sequence (P01116 2-169 isoform P01116-2 G12C): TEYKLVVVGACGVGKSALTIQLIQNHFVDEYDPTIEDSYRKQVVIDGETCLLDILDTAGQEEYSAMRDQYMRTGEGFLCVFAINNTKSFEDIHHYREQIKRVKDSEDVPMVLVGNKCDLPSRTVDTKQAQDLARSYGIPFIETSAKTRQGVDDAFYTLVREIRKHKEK
T1 sequence (P01116 2-169 isoform P01116-2 G12D): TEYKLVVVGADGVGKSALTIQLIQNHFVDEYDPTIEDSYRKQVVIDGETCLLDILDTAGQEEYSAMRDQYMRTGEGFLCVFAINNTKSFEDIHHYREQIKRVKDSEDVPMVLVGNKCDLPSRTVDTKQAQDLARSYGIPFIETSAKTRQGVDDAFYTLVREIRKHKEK
T4 sequence (P01116 2-169 isoform P01116-2): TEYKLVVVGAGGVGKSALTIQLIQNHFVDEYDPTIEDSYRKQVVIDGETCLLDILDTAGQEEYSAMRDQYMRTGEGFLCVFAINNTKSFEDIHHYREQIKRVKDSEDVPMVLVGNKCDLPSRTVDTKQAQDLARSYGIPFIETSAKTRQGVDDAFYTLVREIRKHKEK

Compound	IC50 (GP2d cells (KRAS G12D); GP2d) [nM]	IC50 [1] [nM]	IC50 [2] [nM]	IC50 [3] [nM]	IC50 [4] [nM]	IC50 (SW620 cells (KRAS G12V); [5]) [nM]	IC50 (GP2d cells (KRAS G12D)) [nM]	IC50 (SW620 cells (KRAS G12V); SW620 (KRAS G12V) cells) [nM]
CCN(c1nc(OC[C@@]23CCCN2C[C@H](F)C3)nc2c(F)c(-c3ccc(F)c4sc(N)c(C#N)c34)c(C(F)(F)F)cc12)[C@H]1C[C@H]2CN(C3COC3)C(=O)N2C1 (atropisomer, axis not shown) [Compound 958]	< 100	100 to 1000	100 to 1000	100 to 1000	100 to 1000	< 100	–	–
CN(c1nc(OCC23CCCN2CC(F)C3)nc2c(F)c(-c3ccc(F)c4sc(N)c(C#N)c34)c(C(F)(F)F)cc12)C1CCc2ccncc21 (stereo not drawn) [Compound 962]	–	1000 to 10000	> 10000	> 10000	1000 to 10000	–	< 100	< 100
CCN(c1nc(OC[C@]23CCCN2C[C@H](F)C3)nc2c(F)c(-c3ccc(F)c4sc(N)c(C#N)c34)c(C(F)(F)F)cc12)[C@H]1CCN(C(=O)OC)C1 (atropisomer, axis not shown) [Compound 954]	< 100	≤ 100	100 to 1000	100 to 1000	100 to 1000	< 100	–	–
CCN(c1nc(OC[C@@]23CCCN2C[C@H](F)C3)nc2c(F)c(-c3ccc(F)c4sc(N)c(C#N)c34)c(C(F)(F)F)cc12)[C@@H]1CN2C(=O)N(C)C[C@]2(C)C1 (atropisomer, axis not shown) [Compound 858]	< 100	100 to 1000	100 to 1000	100 to 1000	100 to 1000	< 100	–	–
CCN(c1nc(OC[C@@]23CCCN2C[C@H](F)C3)nc2c(F)c(-c3ccc(F)c4sc(N)c(C#N)c34)c(C(F)(F)F)cc12)[C@H]1C[C@H](C)N(C(=O)OC2COC2)C1 (atropisomer, axis not shown) [Compound 926]	< 100	100 to 1000	100 to 1000	100 to 1000	100 to 1000	< 100	–	–
CCN(c1nc(OC[C@@]23CCCN2C[C@H](F)C3)nc2c(F)c(-c3ccc(F)c4sc(N)c(C#N)c34)c(C(F)(F)F)cc12)[C@H]1CC[C@H](C(=O)N(C)C)C1 (atropisomer, axis not shown) [Compound 660]	< 100	100 to 1000	1000 to 10000	1000 to 10000	100 to 1000	< 100	–	–
CCN(c1nc(OC[C@@]23CCCN2C[C@H](F)C3)nc2c(F)c(-c3ccc(F)c4sc(N)c(C#N)c34)c(C(F)(F)F)cc12)[C@H]1C[C@H](C)N(C(=O)C2CC(OC)C2)C1 (stereo partly drawn) [Compound 928]	< 100	100 to 1000	100 to 1000	100 to 1000	100 to 1000	< 100	–	–
CCN(c1nc(OC[C@@]23CCCN2C[C@H](F)C3)nc2c(F)c(-c3ccc(F)c4sc(N)c(C#N)c34)c(C(F)(F)F)cc12)[C@H]1C[C@H]2CN(C3CCC3)C(=O)N2[C@@H]1C (atropisomer, axis not shown) [Compound 970]	< 100	100 to 1000	100 to 1000	100 to 1000	100 to 1000	< 100	–	–
CCN(c1nc(OC[C@@]23CCCN2C[C@H](F)C3)nc2c(F)c(-c3ccc(F)c4sc(N)c(C#N)c34)c(C(F)(F)F)cc12)[C@@H]1CC[C@@H](C(=O)N(C)C)C1 (atropisomer, axis not shown) [Compound 827]	< 100	1000 to 10000	1000 to 10000	1000 to 10000	1000 to 10000	< 100	–	–
CCN(c1nc(OC[C@@]23CCCN2C[C@H](F)C3)nc2c(F)c(-c3ccc(F)c4sc(N)c(C#N)c34)c(C(F)(F)F)cc12)[C@H]1CCN(C(=O)c2cnc(C)s2)C1 (atropisomer, axis not shown) [Compound 902]	< 100	≤ 100	100 to 1000	≤ 100	100 to 1000	< 100	–	–
CCN(c1nc(OC[C@@]23CCCN2C[C@H](F)C3)nc2c(F)c(-c3ccc(F)c4sc(N)c(C#N)c34)c(C(F)(F)F)cc12)[C@@H]1CCN(C(=O)[C@@H]2CCO2)[C@@H]1C (atropisomer, axis not shown) [Compound 931]	< 100	100 to 1000	100 to 1000	100 to 1000	100 to 1000	< 100	–	–
CN(Cc1cnccn1)c1nc(OC[C@@]23CCCN2C[C@H](F)C3)nc2c(F)c(-c3ccc(F)c4sc(N)c(C#N)c34)c(C(F)(F)F)cc12 (atropisomer, axis not shown) [Compound 872]	< 100	100 to 1000	100 to 1000	100 to 1000	1000 to 10000	< 100	–	–
CN(C)C(=O)N1CC[C@H](N(CCF)c2nc(OC[C@@]34CCCN3C[C@H](F)C4)nc3c(F)c(-c4ccc(F)c5sc(N)c(C#N)c45)c(C(F)(F)F)cc23)C1 (atropisomer, axis not shown) [Compound 828]	< 100	100 to 1000	100 to 1000	100 to 1000	1000 to 10000	100 to 1000	–	–
CCN(c1nc(OC[C@@]23CCCN2C[C@H](F)C3)nc2c(F)c(-c3ccc(F)c4sc(N)c(C#N)c34)c(C(F)(F)F)cc12)[C@H]1CCN(C(=O)[C@@H]2CCO2)[C@@H]1C (atropisomer, axis not shown) [Compound 918]	< 100	≤ 100	≤ 100	≤ 100	≤ 100	< 100	–	–
CCN(c1nc(OCC23CCCN2CC(F)C3)nc2c(F)c(-c3ccc(F)c4sc(N)c(C#N)c34)c(C(F)(F)F)cc12)C1CCN(C(=O)c2ncns2)C1 (stereo not drawn) [Compound 949]	< 100	100 to 1000	100 to 1000	100 to 1000	100 to 1000	< 100	–	–
CCN(c1nc(OC[C@@]23CCCN2C[C@H](F)C3)nc2c(F)c(-c3ccc(F)c4sc(N)c(C#N)c34)c(C(F)(F)F)cc12)[C@H]1C[C@H](C)N(C(=O)OC2CC(OC)C2)C1 (stereo partly drawn) [Compound 907]	< 100	100 to 1000	100 to 1000	100 to 1000	100 to 1000	< 100	–	–
CCN(c1nc(OC[C@@]23CCCN2C[C@H](F)C3)nc2c(F)c(-c3ccc(F)c4sc(N)c(C#N)c34)c(C(F)(F)F)cc12)[C@H]1C[C@H](C)N(C(=O)[C@@H]2C[C@H]2F)C1 (atropisomer, axis not shown; (aS)) [Compound 893, 2-amino-4-((S)-4-(ethyl((3S,5S)-1-((1S,2R)-2-fluorocyclopropane-1-carbonyl)-5-methylpyrrolidin-3-yl)amino)-8-fluoro-2-(((2R,7aS)-2-fluorotetrahydro-1H-pyrrolizin-7a (5H)-yl)methoxy)-6-(trifluoromethyl)quinazolin-7-yl)-7-fluorobenzo[b]thiophene-3-carbonitrile]	< 100	100 to 1000	100 to 1000	≤ 100	100 to 1000	< 100	–	–
CCN(c1nc(OC[C@@]23CCCN2C[C@H](F)C3)nc2c(F)c(-c3ccc(F)c4sc(N)c(C#N)c34)c(C(F)(F)F)cc12)[C@H]1CCN(C(=O)OC2CC(F)(F)C2)C1 (atropisomer, axis not shown) [Compound 830]	< 100	100 to 1000	100 to 1000	100 to 1000	100 to 1000	< 100	–	–
CCN(c1nc(OC[C@@]23CCCN2C[C@H](F)C3)nc2c(F)c(-c3ccc(F)c4sc(N)c(C#N)c34)c(C(F)(F)F)cc12)[C@@H]1CCCN(C)C1=O (atropisomer, axis not shown) [Compound 968]	< 100	100 to 1000	1000 to 10000	1000 to 10000	100 to 1000	< 100	–	–
CN(Cc1cccnn1)c1nc(OC[C@@]23CCCN2C[C@H](F)C3)nc2c(F)c(-c3ccc(F)c4sc(N)c(C#N)c34)c(C(F)(F)F)cc12 (atropisomer, axis not shown) [Compound 876]	< 100	100 to 1000	100 to 1000	100 to 1000	1000 to 10000	< 100	–	–
CCN(c1nc(OC[C@@]23CCCN2C[C@H](F)C3)nc2c(F)c(-c3ccc(F)c4sc(N)c(C#N)c34)c(C(F)(F)F)cc12)[C@H]1CCN(C(=O)c2ccc(C)s2)C1 (atropisomer, axis not shown) [Compound 911]	< 100	100 to 1000	100 to 1000	100 to 1000	1000 to 10000	< 100	–	–
